Measured values from paper PMC9516332 (Frontiers in Oncology, 2022).
Read-outs that look alike come from different tables or passages of the source.

Experiments:
Assay in all cases: Kinase panel profiling at 1 µmol/L (MSA or IMAP), percentage inhibition
Assay type in all cases: biochemical
[1] = target: T1, panel of 255 wild-type kinases (Homo sapiens, UniProt Q9NWZ3); conditions: read-out: %-inhibition at 1 µmol/L, IRAK4
T1 sequence (Q9NWZ3 1-460): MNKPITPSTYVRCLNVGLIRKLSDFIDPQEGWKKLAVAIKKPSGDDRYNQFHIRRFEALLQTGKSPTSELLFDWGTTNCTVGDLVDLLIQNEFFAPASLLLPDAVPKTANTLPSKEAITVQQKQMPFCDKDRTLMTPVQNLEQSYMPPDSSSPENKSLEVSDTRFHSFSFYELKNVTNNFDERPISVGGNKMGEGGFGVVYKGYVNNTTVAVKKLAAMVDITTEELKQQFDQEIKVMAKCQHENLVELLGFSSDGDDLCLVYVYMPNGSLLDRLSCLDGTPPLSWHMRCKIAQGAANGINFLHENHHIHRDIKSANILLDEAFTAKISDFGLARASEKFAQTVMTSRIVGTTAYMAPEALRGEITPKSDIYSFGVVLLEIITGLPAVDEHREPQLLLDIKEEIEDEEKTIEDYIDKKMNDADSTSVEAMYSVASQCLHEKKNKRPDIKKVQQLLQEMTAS

[2] = target: panel of 255 wild-type kinases (Homo sapiens, UniProt P42685); conditions: read-out: %-inhibition at 1 µmol/L, FRK
[3] = target: panel of 255 wild-type kinases (Homo sapiens, UniProt Q13554); conditions: read-out: %-inhibition CaMK2β
[4] = target: T2, panel of 255 wild-type kinases (Homo sapiens, UniProt Q16832); conditions: read-out: %-inhibition at 1 µmol/L, DDR2
T2 sequence (Q16832 22-855): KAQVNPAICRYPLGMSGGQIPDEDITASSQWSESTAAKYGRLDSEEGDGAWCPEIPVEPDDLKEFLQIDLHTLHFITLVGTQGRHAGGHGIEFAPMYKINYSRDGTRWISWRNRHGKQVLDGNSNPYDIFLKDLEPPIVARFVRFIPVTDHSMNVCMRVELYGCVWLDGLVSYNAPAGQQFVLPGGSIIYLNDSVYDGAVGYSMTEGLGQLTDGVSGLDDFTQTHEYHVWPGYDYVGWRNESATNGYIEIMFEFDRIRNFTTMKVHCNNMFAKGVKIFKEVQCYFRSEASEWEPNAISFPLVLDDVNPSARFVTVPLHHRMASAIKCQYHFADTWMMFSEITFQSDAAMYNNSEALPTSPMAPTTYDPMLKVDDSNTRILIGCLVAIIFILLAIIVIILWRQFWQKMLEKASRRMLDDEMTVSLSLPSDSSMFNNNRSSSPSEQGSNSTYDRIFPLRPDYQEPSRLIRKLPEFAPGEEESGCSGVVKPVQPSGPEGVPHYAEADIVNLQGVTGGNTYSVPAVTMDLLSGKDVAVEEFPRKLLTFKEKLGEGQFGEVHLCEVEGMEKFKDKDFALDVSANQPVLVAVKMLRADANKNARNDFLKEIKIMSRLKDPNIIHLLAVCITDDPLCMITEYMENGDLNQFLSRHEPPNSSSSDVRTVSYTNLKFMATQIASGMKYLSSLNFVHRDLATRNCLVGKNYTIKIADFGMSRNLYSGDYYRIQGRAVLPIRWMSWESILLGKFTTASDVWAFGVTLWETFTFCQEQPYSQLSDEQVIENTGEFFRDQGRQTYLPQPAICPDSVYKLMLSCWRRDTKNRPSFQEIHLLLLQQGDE

[5] = target: panel of 255 wild-type kinases (Homo sapiens, UniProt P00519); conditions: read-out: %-inhibition ABL
[6] = target: panel of 255 wild-type kinases (Homo sapiens, UniProt P31749); conditions: read-out: %-inhibition AKT1
[7] = target: panel of 255 wild-type kinases (Homo sapiens, UniProt Q9UKE5); conditions: read-out: %-inhibition at 1 µmol/L, TNIK
[8] = target: panel of 255 wild-type kinases (Homo sapiens, UniProt Q13627); conditions: read-out: %-inhibition at 1 µmol/L, DYRK1A
[9] = target: panel of 255 wild-type kinases (Homo sapiens, UniProt Q9H1R3); conditions: read-out: %-inhibition at 1 µmol/L, skMLCK
[10] = target: panel of 255 wild-type kinases (Homo sapiens, UniProt P48729); conditions: read-out: %-inhibition at 1 µmol/L, CK1α
[11] = target: panel of 255 wild-type kinases (Homo sapiens, UniProt Q9P0L2); conditions: read-out: %-inhibition, MARK1
[12] = kinase IRAK4, 1 µmol/L single concentration
[13] = kinase FRK, 1 µmol/L single concentration
[14] = CaMK2β kinase assay, 1 µmol/L single concentration
[15] = kinase DDR2, 1 µmol/L single concentration
[16] = ABL kinase assay, 1 µmol/L single concentration
[17] = AKT1 kinase assay, 1 µmol/L single concentration
[18] = kinase TNIK, 1 µmol/L single concentration
[19] = kinase DYRK1A, 1 µmol/L single concentration
[20] = kinase skMLCK, 1 µmol/L single concentration
[21] = kinase CK1α, 1 µmol/L single concentration
[22] = MARK1, 1 µmol/L single concentration

Row | SMILES | inhibition at 1 µM [1, 12] | inhibition at 1 µM [2, 13] | inhibition at 1 µM [3, 14] | inhibition at 1 µM [4, 15] | inhibition at 1 µM [5, 16] | inhibition at 1 µM [6, 17] | inhibition at 1 µM [7, 18] | inhibition at 1 µM [8, 19] | inhibition at 1 µM [9, 20] | inhibition at 1 µM [10, 21] | inhibition at 1 µM [11, 22] | other results
1 | Cc1nc(NC(=O)N2CCC[C@H]2C(N)=O)sc1-c1ccnc(C(C)(C)C(F)(F)F)c1 [alpelisib] | -3.77% | -2.26% | -7% | 5.45% | 16% | -6.35% | 4.6% | 6% | -3.8% | -14% | -0.158% | –
2 | Cn1cc(-c2cc3c(N4CCN(c5ncc([C@@](C)(N)c6ccc(F)cc6)cn5)CC4)ncnn3c2)cn1 [avapritinib] | 12% | 25% | 0.895% | 98% | 57% | -9% | 30% | 57% | 1.29% | 5% | -10% | –
3 | Cn1cnc2c(F)c(Nc3ccc(Br)cc3F)c(C(=O)NOCCO)cc21 [binimetinib] | 1.26% | 3% | 2.18% | -10% | -1.53% | -5% | 0.137% | -8% | -5.4% | 9% | 0.905% | –
4 | CNC(=O)c1ccc(-c2cnc3ncc(Cc4ccc5ncccc5c4)n3n2)cc1F [capmatinib] | – | – | – | – | – | – | – | – | – | – | – | inhibition at 1 µM [1]: -0.569%; inhibition at 1 µM [2]: -2%; inhibition at 1 µM [3]: 0.692%; inhibition at 1 µM [4]: -1%; inhibition at 1 µM [5]: -1.84%; inhibition at 1 µM [6]: -10%; inhibition at 1 µM [7]: 1.68%; inhibition at 1 µM [8]: -0.902%; inhibition at 1 µM [9]: -2%; inhibition at 1 µM [10]: -5.42%; inhibition at 1 µM [11]: -5.32%
5 | COc1cc2ncnc(Nc3ccc(F)c(Cl)c3)c2cc1NC(=O)/C=C/CN1CCCCC1 [dacomitinib] | 19% | 70% | 2.54% | 93% | – | -22% | 27% | 9% | 10% | 8% | -2% | –
6 | C[C@H](Nc1ncnc2nc[nH]c12)c1cc2cccc(Cl)c2c(=O)n1-c1ccccc1 [duvelisib] | 1.13% | -2.26% | -7.37% | 8% | -2% | -6% | 5% | -3.48% | -7% | -2% | 4.47% | –
7 | COC(=O)N[C@@H](C)CNc1nccc(-c2cn(C(C)C)nc2-c2cc(Cl)cc(NS(C)(=O)=O)c2F)n1 [encorafenib] | -1.14% | 8% | 4.23% | -7% | -5.41% | -2% | 14% | 6% | -4.51% | 36% | 2.71% | –
8 | CN1CCN(c2ccc(C(=O)Nc3n[nH]c4ccc(Cc5cc(F)cc(F)c5)cc34)c(NC3CCOCC3)c2)CC1 [entrectinib] | 8% | 96% | 13% | 100% | 77% | -9% | 20% | -3.18% | 1.33% | – | 19% | –
9 | CCc1nc(C(N)=O)c(Nc2ccc(N3CCC(N4CCN(C)CC4)CC3)c(OC)c2)nc1NC1CCOCC1 [gilteritinib] | 79% | 95% | 24% | 99% | 40% | -22% | 94% | 18% | 5% | 13% | 27% | –
10 | CCN1CCN(c2ccc(Nc3cc(N(C)C(=O)Nc4c(Cl)c(OC)cc(OC)c4Cl)ncn3)cc2)CC1 [infigratinib] | -1.22% | – | – | 63% | 10% | -12% | – | -4% | -3% | -7.38% | -9% | –
11 | O=C(Nc1cnn2ccc(N3CCC[C@@H]3c3cc(F)ccc3F)nc12)N1CC[C@H](O)C1 [larotrectinib] | 1.67% | -0.308% | 0.902% | 26% | -7% | -15% | 1.8% | -4.7% | -6% | 1.46% | -6.38% | –
12 | C[C@H]1Oc2cc(cnc2N)-c2c(nn(C)c2C#N)CN(C)C(=O)c2ccc(F)cc21 [lorlatinib] | -1.47% | – | -3.21% | 21% | -2.34% | -4% | 7% | -4.39% | -0.456% | -12% | 11% | –
13 | CCN1C(=O)N(c2c(F)c(OC)cc(OC)c2F)Cc2cnc3[nH]c(CN4CCOCC4)cc3c21 [pemigatinib] | 0.22% | 10% | 9% | 5% | 10% | -12% | 4% | -2.67% | 30% | 2.22% | 57% | –
14 | FC(F)(F)c1ccc(CNc2ccc(Cc3c[nH]c4ncc(Cl)cc34)cn2)cn1 [pexidartinib] | 37% | 5.44% | 3% | 90% | 0.064% | -20% | 20% | 8% | 12% | 4.47% | 3% | –
